In brackets after ≈: the same amount, converted by molar mass.
What was measured:
Unbound fraction = type: in vitro ADME
MV-4-11 = conditions: ref data on file, Fosun Pharma; cited from earlier work

Structure (SMILES): CN1CCN(Cc2ccc(NC(=O)c3[nH]ncc3Nc3ncnc4[nH]ccc34)cc2)CC1 [FN-1501]
- Unbound fraction (Unbound fraction): 30%
- IC50 (MV-4-11): 2.6 ng/mL (≈ 6.03 nM)

— PMC10177510, “A Multicenter, Open-Label, Phase I/II Study of FN-1501 in Patients with Advanced Solid Tumors” (Cancers, 2023)
